Assay results as given in patent US12137690B2, “Herbicidal mixtures comprising L-glufosinate and their use in cotton cultures” (BASF SE, priority 2017, dated 2024).

Tests used:
Assay in all cases: Post emergence treatment, herbicidal activity on scale 0 to 100, synergism by Colby
Assay type in all cases: in vivo
Details in all cases: scale 0-100
AVEFA (Avena fatua) = system: AVEFA (Avena fatua)
Method: (§1) The presence of a synergistic effect in terms of percent control, between two mixing partners (X and Y) can be calculated using the Colby equation (Colby, S. R., 1967, Calculating Synergistic and Antagonistic Responses in Herbicide Combinations, Weeds, 15, 21-22):
(§2) The analysis of synergism or antagonism between the mixtures or compositions was determined using Colby's equation.
(§3) The culture containers used were plastic flowerpots containing loamy sand with approximately 3.0% of humus as the substrate. The seeds of the test plants were sown separately for each species and/or resistant biotype. […] The containers were irrigated gently to promote germination and growth and subsequently covered with transparent plastic hoods until the plants had rooted. This cover caused uniform germination of the test plants, unless this had been impaired by the active ingredients. […] For this purpose, the test plants were either sown directly and grown in the same containers, or they were first grown separately as seedlings and transplanted into the test containers a few days prior to treatment. Depending on the species, the plants were kept at 10-25° C. or 20-35° C., respectively. The test period extended to 20 days after treatment. During this time, the plants were tended, and their response to the individual treatments was evaluated. The evaluation was carried out by using a scale from 0 to 100. 100 means no emergence of the plants or complete destruction of at least the above-ground parts, and 0 means no damage, or normal course of growth. Data shown are the mean of two replications.

SETVI (Setaria viridis) = system: SETVI (Setaria viridis)
Method: as §1, §2, §3

CYPIR (Cyperus iria) = system: CYPIR (Cyperus iria)
Method: as §1, §2, §3

KCHSC (Kochia scoparia) = system: KCHSC (Kochia scoparia)
Method: as §1, §2, §3

[1] = system: ABUTH (Abutilon theophrasti)
Method: as §1, §2, §3

[2] = system: CHEAL (Chenopodium album)
Method: as §1, §2, §3

[3] = system: ECHCG (Echinochloa crus-galli)
Method: as §1, §2, §3

[4] = system: ERICA (Erigeron Canadensis, Conyza canadensis)
Method: as §1, §2, §3

[5] = 2,4-D as dimethylammonium salt 70 g ai/ha
[6] = 2,4-D as dimethylammonium salt 140 g ai/ha

In the case of `CNC.O=C(O)COc1ccc(Cl)cc1Cl` [2,4-D as dimethylammonium salt, 2,4-D dimethylammonium salt], the “Herbicidal activity against AVEFA, Found” value (AVEFA (Avena fatua); [5]) is reported as 0, the “Herbicidal activity against AVEFA, Found” value (AVEFA (Avena fatua); [6]) is reported as 0 and the “Herbicidal activity against SETVI, Found” value (SETVI (Setaria viridis); [5]) is reported as 0. The “Herbicidal activity against SETVI, Found” value (SETVI (Setaria viridis); [6]) was 0.

In the case of `CCOC(=O)COc1ncccc1Oc1cc(-n2c(=O)cc(C(F)(F)F)n(C)c2=O)c(F)cc1Cl` [Compound II-83, ethyl [3-[2-chloro-4-fluoro-5-(1-methyl-6-trifluoromethyl-2,4-dioxo-1,2,3,4-tetrahydropyrimidin-3-yl)phenoxy]-2-pyridyloxy]acetate], the “Herbicidal activity against CYPIR, Found” value (CYPIR (Cyperus iria); Compound II-83 0.25 g ai/ha) is reported as 0.

For `CNC.COc1c(Cl)ccc(Cl)c1C(=O)O` [Dicamba as dimethylammonium salt, Dicamba dimethylammonium salt], the “Herbicidal activity against SETVI, Found” value (SETVI (Setaria viridis); Dicamba as dimethylammonium salt 35 g ai/ha) was 0, the “Herbicidal activity against SETVI, Found” value (SETVI (Setaria viridis); Dicamba as dimethylammonium salt 70 g ai/ha) was 0 and the “Herbicidal activity against SETVI, Found” value (SETVI (Setaria viridis); Dicamba as dimethylammonium salt 140 g ai/ha) was 30.

`COC[C@H](C)N(C(=O)CCl)c1c(C)csc1C` [Dimethenamid-P, dimethenamid-P] was tested, and the “Herbicidal activity against KCHSC, Found” value (KCHSC (Kochia scoparia); Dimethenamid-P 500 g ai/ha) was 0 and the “Herbicidal activity against KCHSC, Found” value (KCHSC (Kochia scoparia); Dimethenamid-P 1000 g ai/ha) was 70.

For `CN(C)C(=O)Nc1ccc(Cl)c(Cl)c1` [Diuron, diuron], the “Herbicidal activity against AVEFA, Found” value (AVEFA (Avena fatua); Diuron 125 g ai/ha) was 20 and the “Herbicidal activity against AVEFA, Found” value (AVEFA (Avena fatua); Diuron 250 g ai/ha) was 30.

With `CN(C)C(=O)Nc1cccc(C(F)(F)F)c1` [Fluometuron, fluometuron] the “Herbicidal activity against ABUTH, Found” value ([1]; Fluometuron 125 g ai/ha) was 0 and the “Herbicidal activity against ABUTH, Found” value ([1]; Fluometuron 250 g ai/ha) was 20.

With `CP(=O)(O)CC[C@H](N)C(=O)O` [L-Glufosinate, (2S)-2-amino-4-[hydroxy(methyl)phosphinoyl]butyric acid] the “Herbicidal activity against ABUTH, Found” value ([1]; L-Glufosinate 75 g ai/ha) was 0, the “Herbicidal activity against AVEFA, Found” value (AVEFA (Avena fatua); L-Glufosinate 100 g ai/ha) was 35 and the “Herbicidal activity against AVEFA, Found” value (AVEFA (Avena fatua); L-Glufosinate 300 g ai/ha) was 20. The “Herbicidal activity against CHEAL, Found” value ([2]; L-Glufosinate 100 g ai/ha) was 0, the “Herbicidal activity against CYPIR, Found” value (CYPIR (Cyperus iria); L-Glufosinate 200 g ai/ha) was 0 and the “Herbicidal activity against ECHCG, Found” value ([3]; Example 4, L-Glufosinate 200 g ai/ha) was 0. The “Herbicidal activity against ECHCG, Found” value ([3]; Example 4, L-Glufosinate 400 g ai/ha) was 65, the “Herbicidal activity against ECHCG, Found” value ([3]; Example 6, L-Glufosinate 200 g ai/ha) was 0 and the “Herbicidal activity against ECHCG, Found” value ([3]; Example 6, L-Glufosinate 400 g ai/ha) was 65. The “Herbicidal activity against ECHCG, Found” value ([3]; Example 12, L-Glufosinate 100 g ai/ha) was 0, the “Herbicidal activity against ECHCG, Found” value ([3]; Example 12, L-Glufosinate 200 g ai/ha) was 0 and the “Herbicidal activity against ECHCG, Found” value ([3]; Example 13, L-Glufosinate 100 g ai/ha) was 0. For the same compound, the “Herbicidal activity against ECHCG, Found” value ([3]; Example 13, L-Glufosinate 200 g ai/ha) was 0, the “Herbicidal activity against ECHCG, Found” value ([3]; Example 14, L-Glufosinate 100 g ai/ha) was 0 and the “Herbicidal activity against ECHCG, Found” value ([3]; Example 14, L-Glufosinate 200 g ai/ha) was 0. For the same compound, the “Herbicidal activity against ERICA, Found” value ([4]; L-Glufosinate 75 g ai/ha) was 90, the “Herbicidal activity against KCHSC, Found” value (KCHSC (Kochia scoparia); L-Glufosinate 200 g ai/ha) was 90 and the “Herbicidal activity against SETVI, Found” value (SETVI (Setaria viridis); Example 8, L-Glufosinate 100 g ai/ha) was 30. The “Herbicidal activity against SETVI, Found” value (SETVI (Setaria viridis); Example 9, L-Glufosinate 100 g ai/ha) was 30, the “Herbicidal activity against SETVI, Found” value (SETVI (Setaria viridis); L-Glufosinate 75 g ai/ha) was 0 and the “Herbicidal activity against SETVI, Found” value (SETVI (Setaria viridis); L-Glufosinate 150 g ai/ha) was 70.

For `CCc1cccc(C)c1N(C(=O)CCl)[C@@H](C)COC` [S-Metolachlor, S-metolachlor], the “Herbicidal activity against CHEAL, Found” value ([2]; S-Metolachlor 500 g ai/ha) was 20 and the “Herbicidal activity against CHEAL, Found” value ([2]; S-Metolachlor 1000 g ai/ha) was 75.

For `CC(C)N(C)S(=O)(=O)NC(=O)c1cc(-n2c(=O)cc(C(F)(F)F)n(C)c2=O)c(F)cc1Cl` [Saflufenacil, saflufenacil], the “Herbicidal activity against ECHCG, Found” value ([3]; Saflufenacil 0.5 g ai/ha) was 0.

In the case of `Cc1nn(-c2cc(NS(C)(=O)=O)c(Cl)cc2Cl)c(=O)n1C(F)F` [Sulfentrazone, sulfentrazone], the “Herbicidal activity against ERICA, Found” value ([4]; Sulfentrazone 1.25 g ai/ha) is reported as 0 and the “Herbicidal activity against ERICA, Found” value ([4]; Sulfentrazone 2.5 g ai/ha) is reported as 0.

For `CS(=O)(=O)c1ccc(C(=O)C2C(=O)CCCC2=O)c(Cl)c1COCC(F)(F)F` [Tembotrione, tembotrione], the “Herbicidal activity against ECHCG, Found” value ([3]; Tembotrione 0.5 g ai/ha) was 0.

In the case of `O=C(Nc1ccccc1)Nc1cnns1` [Thidiazuron], the “Herbicidal activity against SETVI, Found” value (SETVI (Setaria viridis); Thidiazuron 50 g ai/ha) is reported as 0.

For `Cc1c(C(=O)c2cnn(C)c2O)ccc(S(C)(=O)=O)c1C1=NOCC1` [Topramezone, topramezone], the “Herbicidal activity against ECHCG, Found” value ([3]; Topramezone 1 g ai/ha) was 0.

`C#CCN1C(=O)C(F)(F)Oc2cc(F)c(-n3c(=O)n(C)c(=S)n(C)c3=O)cc21` [Trifludimoxazin, trifludimoxazin] was tested, and the “Herbicidal activity against ECHCG, Found” value ([3]; Trifludimoxazin 0.25 g ai/ha) was 10.

With bicyclopyrone the “Herbicidal activity against ECHCG, Found” value ([3]; Bicyclopyrone 2 g ai/ha) was 0.
